Measurements published in paper PMC9820444, “Design and Synthesis of Acridine-Triazole and Acridine-Thiadiazole Derivatives and Their Inhibitory Effect against Cancer Cells” (International Journal of Molecular Sciences, 2022).
Where two headings read alike, the source gives them in different places. Marks after values point to notes of the source that are not given here.

Assays:
[1] = tested on: human normal liver cells (LO2); assay: Cytotoxicity against normal liver cells LO2; type: cell-based; conditions: Homo sapiens, MTT, read-out: Effect against cell viability (IC50), LO2
Description: (§1) All newly synthesized acridinyl derivatives (4–6) were screened for their anticancer activities in comparison to the reference compounds, 5-FU and cis-platinum. Compounds 4–6 were tested for their in vitro antitumor activities against HFF, MGC-803, BEL-7404, NCI-H460, and T24 tumor cell lines, and human normal liver cells (LO2), and the results are shown in Table 1. Most of the compounds had strong selective potency against MGC-803 and T24 cancer cells. […] In the T24 cell line assay, many compounds, especially the series of compound 4, had significant activity against T24. This implies that there is a significant increase in potency after the introduction of the aroyl thiourea group. […] To our delight, most 1,2,4-triazolethiones (5) and 1,2,4-thiadiazoles (6) have low toxicity to LO2 compared with the positive control.
(§2) Test samples, including compounds 4–6 and commercial classical anticancer drugs (5-FU and cis-platinum), were screened for their anti-cancer activity against HFF human foreskin fibroblast cells, MGC-803 human gastric cancer cells, BEL-7404 human hepatocellular carcinoma cells, NCI-H460 human large cell carcinoma cells, and T24 human bladder carcinoma cells using the 3-(4,5-dimethylthiazol-2-yl)-2,5-diphenyltetrazoliumbromide (MTT) assay method cited in the literature. The initial concentration of all the test samples was 100 μg/mL, which was serially diluted in complete medium with ten-fold dilutions to give six concentrations per compound. Their cytotoxicity was determined in 96-well flat bottomed microtiter plates. All the test samples were tested in triplicate. The results were expressed as the drug concentration that inhibited cell growth by 50% as compared to the controls (IC50). The IC50 values were calculated from regression lines obtained from the percent cell growth inhibition plotted as a function of the logarithm of the dose.

[2] = tested on: hepatocellular carcinoma bel-7404 (BEL-7404); assay: MTT antiproliferative assay, BEL-7404; type: cell-based, human; conditions: Homo sapiens, read-out: Effect against cell viability (IC50), BEL-7404
Description: as §1, §2

[3] = tested on: large cell lung cancer cells (NCI-H460); assay: MTT antiproliferative assay, NCI-H460; type: cell-based, human; conditions: Homo sapiens, read-out: Effect against cell viability (IC50), NCI-H460
Description: as §1, §2

[4] = tested on: human gastric cancer cells-803 (MGC-803); assay: MTT antiproliferative assay, MGC-803; type: cell-based; conditions: read-out: Effect against cell viability (IC50), MGC-803
Description: as §1, §2

[5] = tested on: human foreskin fibroblasts (HFF); assay: MTT antiproliferative assay, HFF; type: cell-based; conditions: Homo sapiens, Fibroblast, read-out: Effect against cell viability (IC50), HFF
Description: as §1, §2

[6] = tested on: bladder cancer cells (T24); assay: MTT antiproliferative assay, T24; type: cell-based, human; conditions: Homo sapiens, read-out: Effect against cell viability (IC50), T24
Description: as §1, §2

zebrafish embryos = tested on: zebrafish embryos; set-up: mortality rate of zebrafish embryos: dose or concentration left out as unconfirmed; conditions: for MAR (malformation rate) / MOR (mortality rate): zebrafish embryos 72 hpf
Description: In this experiment, 2% DMSO was used to dissolve the target products, and the abnormal rate (MAR) and mortality rate (MOR) of zebrafish embryos (72 hpf) were used for statistics.
The zebrafish embryos were collected at 6 hpf and randomly divided into naive control (embryos maintained in distilled water), vehicle control (embryos treated with 2% DMSO), and drug groups. Stock solutions of all drugs were prepared in 2% DMSO as a solubilizing agent and diluted to three concentrations (0.5 mg/mL, 1 mg/mL, and 2 mg/mL). Each group had 20 embryos per test concentration. […] Each compound was evaluated in three independent biological experiments.

Row | melting point | IC50 [2] | IC50 [3] | IC50 ([4]; Homo sapiens, MGC-803, MTT) | IC50 [6] | SMILES | IC50 [1] | IC50 [5] | IC50 ([4]; MTT) | MAR (malformation rate) (zebrafish embryos; 1 mg/mL) | MOR (mortality rate) (zebrafish embryos; 1 mg/mL) | MAR (malformation rate) (zebrafish embryos; 1.5 mg/mL) | MOR (mortality rate) (zebrafish embryos; 1.5 mg/mL) | MAR (malformation rate) (zebrafish embryos; 2 mg/mL) | MOR (mortality rate) (zebrafish embryos; 2 mg/mL) | mortality rate of zebrafish embryos (zebrafish embryos) | malformation rate of zebrafish embryos (zebrafish embryos; 2.0 mg.L^−1)
1 | 264 to 268 °C | 44.2 ± 2.68 µM | 58.8 ± 3.22 µM | 15.2 ± 1.08 µM | 15.7 ± 1.58 µM | Cc1ccc2nc3ccccc3c(-n3c(-c4ccncc4)n[nH]c3=S)c2c1 [5f, 4-(2-methylacridin-9-yl)-5-(pyridin-4-yl)-2,4-dihydro-3H-1,2,4-triazole-3-thione] | 46.8 ± 2.93 µM | 69.2 ± 2.16 µM | – | – | – | – | – | – | – | – | –
2 | 292 to 293 °C | 20.5 ± 1.13 µM | 30.6 ± 2.21 µM | – | 19.4 ± 2.17 µM | Cc1ccc2nc3ccccc3c(-n3c(-c4ccccc4)n[nH]c3=S)c2c1 [5g, 4-(2-methylacridin-9-yl)-5-phenyl-2,4-dihydro-3H-1,2,4-triazole-3-thione] | 44.6 ± 2.35 µM | 68.3 ± 2.74 µM | – | – | – | – | – | – | – | – | –
3 | 245 to 247 °C | 31.7 ± 2.36 µM | 28.3 ± 1.32 µM | 8.92 ± 0.99 µM | 14.3 ± 1.27 µM | Cc1ccc2nc3ccccc3c(-n3c(-c4ccc([N+](=O)[O-])cc4)n[nH]c3=S)c2c1 [5i, 4-(2-methylacridin-9-yl)-5-(4-nitrophenyl)-2,4-dihydro-3H-1,2,4-triazole-3-thione] | > 100 µM | 70.9 ± 2.99 µM | – | – | – | – | – | – | – | – | –
4 | 263 to 265 °C | 32.3 ± 2.82 µM | 47.5 ± 3.51 µM | 23.3 ± 1.97 µM | 49.4 ± 4.59 µM | COC1=CC2C(=Nc3nnc(-c4ccccc4)s3)c3ccccc3NC2C=C1 (stereo not drawn) [6b, 7-methoxy-N-(5-phenyl-1,3,4-thiadiazol-2-yl)-10,10a-dihydroacridin-9(8aH)-imine] | > 100 µM | 79.3 ± 2.48 µM | – | – | – | – | – | – | – | – | –
5 | 230 to 232 °C | 25.1 ± 2.15 µM | 30.2 ± 2.45 µM | 12.1 ± 1.22 µM | 24.3 ± 2.34 µM | COC1=CC2C(=Nc3nnc(-c4ccc(OC)cc4)s3)c3ccccc3NC2C=C1 (stereo not drawn) [6c, 7-methoxy-N-(5-(4-methoxyphenyl)-1,3,4-thiadiazol-2-yl)-10,10a-dihydroacridin-9(8aH)-imine] | > 100 µM | 65.2 ± 3.92 µM | – | – | – | – | – | – | – | – | –

The next lines start with the compound.

Row | SMILES | melting point | IC50 [2] | IC50 [3] | IC50 ([4]; Homo sapiens, MGC-803, MTT) | IC50 [6] | IC50 [1] | IC50 [5] | IC50 ([4]; MTT) | MAR (malformation rate) (zebrafish embryos; 1 mg/mL) | MOR (mortality rate) (zebrafish embryos; 1 mg/mL) | MAR (malformation rate) (zebrafish embryos; 1.5 mg/mL) | MOR (mortality rate) (zebrafish embryos; 1.5 mg/mL) | MAR (malformation rate) (zebrafish embryos; 2 mg/mL) | MOR (mortality rate) (zebrafish embryos; 2 mg/mL) | mortality rate of zebrafish embryos (zebrafish embryos) | malformation rate of zebrafish embryos (zebrafish embryos; 2.0 mg.L^−1)
6 | COc1ccc2nc3ccccc3c(-n3c(-c4ccncc4)n[nH]c3=S)c2c1 [5a, 4-(2-methoxyacridin-9-yl)-5-(pyridin-4-yl)-2,4-dihydro-3H-1,2,4-triazole-3-thione] | 272 to 273 °C | 22.1 ± 2.72 µM | 36.5 ± 2.96 µM | 22.4 ± 1.32 µM | 21.2 ± 2.72 µM | 42 ± 2.31 µM | 74.5 ± 4.03 µM | – | – | – | – | – | – | – | – | –
7 | COc1ccc2nc3ccccc3c(-n3c(-c4ccccc4)n[nH]c3=S)c2c1 [5b, 4-(2-methoxyacridin-9-yl)-5-phenyl-2,4-dihydro-3H-1,2,4-triazole-3-thione] | 259 to 261 °C | 27.7 ± 2.97 µM | 42.1 ± 3.74 µM | 15.8 ± 1.94 µM | 22.1 ± 1.85 µM | 58.3 ± 3.25 µM | 53.6 ± 2.78 µM | – | – | – | – | – | – | – | – | –
8 | COC1=CC2C(=Nc3nnc(-c4ccc(Cl)cc4)s3)c3ccccc3NC2C=C1 (stereo not drawn) [6e, 7-methoxy-N-(5-(4-chlorophenyl)-1,3,4-thiadiazol-2-yl)-10,10a-dihydroacridin-9(8aH)-imine] | – | 21.3 ± 2.81 µM | 27.9 ± 3.97 µM | 9.95 ± 1.03 µM | 14.9 ± 1.3 µM | 33.6 ± 2.01 µM | 44.7 ± 1.44 µM | 9.01 ± 1.32 µM | 10% ^c | 10% ^c | 70% ^c | 30% ^c | 35% ^c | 65% ^c | – | –
9 | CC1=CC2C(=Nc3nnc(-c4ccc([N+](=O)[O-])cc4)s3)c3ccccc3NC2C=C1 (stereo not drawn) [6i, 7-methyl-N-(5-(4-nitrophenyl)-1,3,4-thiadiazol-2-yl)-10,10a-dihydroacridin-9(8aH)-imine] | – | 43.7 ± 2.36 µM | 36.4 ± 3.15 µM | 22.9 ± 1.85 µM | 29.9 ± 2.45 µM | > 100 µM | 92 ± 2.99 µM | – | 0% | 0% | 10% ^b | 0% | 25% ^c | 0% | 0% | 25%
